In assay [1] the target is DPP1 in HL-60 cells (Homo sapiens, UniProt P53634). The assay is described as follows: DPP1 Cell IC50 assay. Type of assay: cell-based. On the set-up: host or cells: HL-60 cells. To be noted: 60 min pre-incubation, H-Gly-Phe-AFC substrate, average of n runs, read-out: Avg. IC50 (DPP1 Cell IC50 value ranges). The essentials:
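HL-60 cells in PBS (5×10^5 live cells per mL) pre-incubated with compound (0.5% DMSO) 60 min at 37° C, 5% CO2, then H-Gly-Phe-AFC substrate (500 μM stock) added for 30 min. Fluorescence at 400/505 nm; % inhibition vs vehicle wells, IC50 from four-parameter logistic fit.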

For assay [2], the target named is human DPP1 enzyme (Homo sapiens, UniProt P53634). The assay is described as follows: Human DPP1 Enzyme IC50 Assay. It is filed as biochemical. On the set-up: was first proteolytically processed into its mature form using recombinant human cathepsin L; purchased R&D Systems. To be noted: activated recombinant human DPP1, 400 μM H-Gly-Arg-AMC, 10 minutes pre-incubation at 37° C., pH 6.0; average of n runs; read-out: Avg. IC50 (Human DPP1 enzyme IC50 value ranges). The method in brief: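 Recombinant human DPP1, pre-activated with cathepsin L (pH 4.5), was preincubated with compound 10 min at 37 °C in MES pH 6.0, 50 mM NaCl, 5 mM DTT, 1% DMSO. Cleavage of 400 μM (final) H-Gly-Arg-AMC followed by fluorescence (350/450 nm) over 90 min at 37 °C; IC50 from four-parameter logistic fit versus no-compound control.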
Sequence of human DPP1 enzyme (P53634 25-134 limits assumed): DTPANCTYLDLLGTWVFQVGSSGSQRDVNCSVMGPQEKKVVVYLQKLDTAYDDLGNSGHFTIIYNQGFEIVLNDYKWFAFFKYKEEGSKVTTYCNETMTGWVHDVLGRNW
Sequence of human DPP1 enzyme (P53634 231-394 limits assumed): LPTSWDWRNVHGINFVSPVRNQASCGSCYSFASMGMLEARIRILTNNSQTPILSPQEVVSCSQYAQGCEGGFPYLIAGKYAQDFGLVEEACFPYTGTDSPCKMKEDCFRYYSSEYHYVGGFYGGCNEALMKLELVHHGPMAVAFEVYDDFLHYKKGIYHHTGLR
Sequence of human DPP1 enzyme (P53634 395-463 limits assumed): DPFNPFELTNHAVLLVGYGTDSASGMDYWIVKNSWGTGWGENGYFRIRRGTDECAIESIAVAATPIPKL

The record followed here is US20260008760A1, “DIPEPTIDYL PEPTIDASE 1 INHIBITORS AND USES THEREOF” (Insmed Incorporated, priority 2024, published 2026).

Molecules are shown by their SMILES. Where only a bound is given, the exact number is not on record here.

By IC50 is commonly meant the concentration that gives 50% inhibition.

Sequence of DPP1 in HL-60 cells (P53634 25-463): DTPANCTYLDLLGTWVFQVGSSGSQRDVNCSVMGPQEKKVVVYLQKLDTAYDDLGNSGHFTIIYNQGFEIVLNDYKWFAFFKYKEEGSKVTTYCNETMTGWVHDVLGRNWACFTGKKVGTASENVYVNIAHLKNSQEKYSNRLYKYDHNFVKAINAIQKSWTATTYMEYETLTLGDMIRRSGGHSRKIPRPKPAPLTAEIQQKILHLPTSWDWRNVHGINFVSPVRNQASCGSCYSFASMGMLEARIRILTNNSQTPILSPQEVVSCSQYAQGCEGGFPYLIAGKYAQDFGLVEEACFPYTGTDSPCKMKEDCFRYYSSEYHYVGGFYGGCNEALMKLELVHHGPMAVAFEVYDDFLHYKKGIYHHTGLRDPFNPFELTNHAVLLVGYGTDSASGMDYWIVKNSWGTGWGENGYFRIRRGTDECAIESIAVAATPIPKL

`N#C[C@H](Cc1ccc(NC(=O)c2csc(-c3cscn3)n2)cc1)NC(=O)[C@@H]1CNCCCO1` [Compound D7, (2S)—N-[(1S)-1-cyano-2-{4-[2-(1,3-thiazol-4-yl)-1,3-thiazole-4-amido]phenyl}ethyl]-1,4-oxazepane-2-carboxamide]: the values for the half-maximal inhibitory concentration (IC50) in assay [1] and in assay [2] were more than 2.5 nM and more than 15 nM, respectively.
On to `CCc1sc(-c2ccc(C[C@@H](C#N)NC(=O)[C@@H]3CNCCCO3)cc2)nc1-c1cnn(C)c1` [Compound D8, (2S)—N-[(1S)-1-cyano-2-{4-[5-ethyl-4-(1-methylpyrazol-4-yl)-1,3-thiazol-2-yl]phenyl}ethyl]-1,4-oxazepane-2-carboxamide], for which the IC50 is more than 2.5 nM in assay [1] and more than 15 nM in assay [2].
Consider `Cc1sc(-c2ccc(C[C@@H](C#N)NC(=O)[C@@H]3CNCCCO3)cc2)nc1-c1cc[nH]c(=O)c1` [Compound D9, (2S)—N-[(1S)-1-cyano-2-{4-[5-methyl-4-(2-oxo-1H-pyridin-4-yl)-1,3-thiazol-2-yl]phenyl}ethyl]-1,4-oxazepane-2-carboxamide], for which the IC50 was more than 2.5 nM in assay [1] and more than 15 nM in assay [2].
For `CCCCOCCn1c(=O)oc2ccc(-c3ccc(C[C@@H](C#N)NC(=O)[C@@H]4CNC(C)C(OC)CO4)c(F)c3)cc21` (stereo partly drawn) [Compound E1, (2S)—N-[(1S)-2-{4-[3-(2-butoxyethyl)-2-oxo-1,3-benzoxazol-5-yl]-2-fluorophenyl}-1-cyanoethyl]-6-methoxy-5-methyl-1,4-oxazepane-2-carboxamide], the figures for the IC50 in assay [1] and in assay [2] were 1 to 2.5 nM and less than 5 nM, respectively.
On the same counts, the results for `COC1CO[C@H](C(=O)N[C@H](C#N)Cc2ccc(-c3ccc4c(c3)C3(CC4)CCN(C)CC3)cc2F)CNC1C` (stereo partly drawn) [Compound E6, (2S)—N-[(1S)-1-cyano-2-(2-fluoro-4-{1′-methyl-2,3-dihydrospiro[indene-1,4′-piperidin]-6-yl}phenyl)ethyl]-6-methoxy-5-methyl-1,4-oxazepane-2-carboxamide] are more than 2.5 nM and less than 5 nM.
Consider `CO[C@H]1CCO[C@H](C(=O)N[C@H](C#N)Cc2ccc(-c3ccc(C#N)cc3)cc2)CNC1` [Compound F1, (2S,6S)—N-[(1S)-1-cyano-2-{4′-cyano-[1,1′-biphenyl]-4-yl}ethyl]-6-methoxy-1,4-oxazocane-2-carboxamide], for which the figures for the IC50 in assay [1] and in assay [2] were more than 2.5 nM and more than 15 nM, respectively.
On the same counts, the results for `CCCCOCCn1c(=O)oc2ccc(-c3ccc(C[C@@H](C#N)NC(=O)[C@@H]4CNC[C@@H](OC)CCO4)cc3)cc21` [Compound F2, (2S,6S)—N-[(1S)-2-{4-[3-(2-butoxyethyl)-2-oxo-1,3-benzoxazol-5-yl]phenyl}-1-cyanoethyl]-6-methoxy-1,4-oxazocane-2-carboxamide] are more than 2.5 nM and more than 15 nM.
On the same counts, the results for `CO[C@H]1CCO[C@H](C(=O)N[C@H](C#N)Cc2ccc(-c3ccc4oc(=O)n(C)c4c3)s2)CNC1` [Compound F3, (2S,6S)—N-[(1S)-1-cyano-2-[5-(3-methyl-2-oxo-1,3-benzoxazol-5-yl)thiophen-2-yl]ethyl]-6-methoxy-1,4-oxazocane-2-carboxamide] are more than 2.5 nM and more than 15 nM.
For `CO[C@@H]1CCNC[C@@H](C(=O)N[C@H](C#N)Cc2ccc(-c3ccc4cnn(C)c4c3)cc2F)OC1` [Compound H7, (2S,7R)—N-[(1S)-1-cyano-2-[2-fluoro-4-(1-methylindazol-6-yl)phenyl]ethyl]-7-methoxy-1,4-oxazocane-2-carboxamide], the IC50 in assay [1] is less than 1 nM; in assay [2], less than 5 nM.
In the same order, the values of `CO[C@@H]1CNC[C@@H](C(=O)N[C@H](C#N)Cc2ccc(-c3ccc4nnn(C)c4c3)cc2)OC1` [Compound H12-B] are 1 to 2.5 nM and less than 5 nM.
Regarding `N#C[C@H](Cc1ccc(-c2ccc3c(c2)C2(CCN(C4COC4)CC2)COC3)cc1)NC(=O)[C@@H]1CNCCCO1` [Compound I5], the IC50 in assay [1] is more than 2.5 nM; in assay [2] it was 5 to 15 nM.
As to `N#C[C@H](Cc1ccc(-c2ccc3c(c2)[C@@]2(CCN(C4COC4)C2)COC3)cc1)NC(=O)[C@@H]1CNCCCO1` [Compound I6], the IC50 in assay [1] is more than 2.5 nM; in assay [2], 5 to 15 nM.
Consider `N#C[C@H](Cc1ccc(-c2ccc3c(c2)C2(CCN(C4CC4)CC2)SCC3)cc1)NC(=O)[C@@H]1CNCCCO1` [Compound I7], for which the IC50 in assay [1] was more than 2.5 nM; in assay [2] it was more than 15 nM.
On the same counts, the results for `N#C[C@H](Cc1ccc(-c2ccc3c(c2)[C@@]2(CCCN(C4CCCCC4)C2)CS3)cc1)NC(=O)[C@@H]1CNCCCO1` [Compound I9] are more than 2.5 nM and 5 to 15 nM.
In the same order, the values of `N#C[C@H](Cc1ccc(-c2ccc3c(c2)[C@@]2(CCCN(C4CC4)C2)COC3)cc1)NC(=O)[C@@H]1CNCCCO1` [Compound I12] are more than 2.5 nM and 5 to 15 nM.
`N#C[C@H](Cc1ccc(-c2ccc3c(c2)[C@]2(CCCN(c4ccsc4)C2)SC3)cc1)NC(=O)[C@@H]1CNCCCO1` [Compound I13]: the results for the IC50 in assay [1] and in assay [2] were more than 2.5 nM and more than 15 nM, respectively.
Consider `N#C[C@H](Cc1ccc(-c2ccc3c(c2)C[C@]2(CCN(c4nccs4)C2)OC3)cc1)NC(=O)[C@@H]1CNCCCO1` [Compound I14], for which the IC50 was more than 2.5 nM in assay [1] and more than 15 nM in assay [2].
On the same counts, the results for `N#C[C@H](Cc1ccc(-c2ccc3c(c2)[C@]2(CCCN(C#N)C2)SC3)cc1)NC(=O)[C@@H]1CNCCCO1` [Compound I15] are more than 2.5 nM and more than 15 nM.
For `N#C[C@H](Cc1ccc(-c2ccc3c(c2)C2(CCN(c4nccs4)CC2)SC3)cc1)NC(=O)[C@@H]1CNCCCO1` [Compound I16], the IC50 in assay [1] is more than 2.5 nM; in assay [2] it was more than 15 nM.
Turning to `N#C[C@H](Cc1ccc(-c2ccc3c(c2)[C@]2(CCN(C#N)C2)SC3)cc1)NC(=O)[C@@H]1CNCCCO1` [Compound I18], the values for the IC50 in assay [1] and in assay [2] were more than 2.5 nM and more than 15 nM, respectively.
Turning to `N#C[C@H](Cc1ccc(-c2ccc3c(c2)[C@]2(CCCN(c4nccs4)C2)COC3)cc1)NC(=O)[C@@H]1CNCCCO1` [Compound I20], the IC50 in assay [1] is more than 2.5 nM; in assay [2], more than 15 nM.
